Values quoted from earlier work, collected in article PMC3065533 (Journal of nuclear medicine : official publication, Society …, 2011).

Molecular target: melanocortin-1 (MC1) receptor (Mus musculus, UniProt Q01727)
Settings: stated in methods without reference

Chain of melanocortin-1 (MC1) receptor (Q01727 whole entry): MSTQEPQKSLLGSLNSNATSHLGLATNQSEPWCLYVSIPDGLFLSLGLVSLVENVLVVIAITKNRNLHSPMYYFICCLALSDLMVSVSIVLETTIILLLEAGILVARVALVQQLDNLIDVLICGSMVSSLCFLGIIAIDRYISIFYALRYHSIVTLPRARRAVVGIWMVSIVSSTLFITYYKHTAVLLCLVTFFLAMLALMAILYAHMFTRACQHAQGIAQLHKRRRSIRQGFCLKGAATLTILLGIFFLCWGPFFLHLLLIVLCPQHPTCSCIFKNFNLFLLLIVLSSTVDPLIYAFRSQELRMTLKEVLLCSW

NDP-MSH
MC1 receptor binding affinity (in words): picomolar
